In this test the target is T1, cannabinoid CB1 receptors (Homo sapiens, UniProt P21554).
T1 construct: expressed in transfected cells; host or cells: HEK cells, transient, Semliki Forest Virus system; membrane preparation
In words: Affinity for cannabinoid CB1 receptors, [3H]-CP-55,940 radioligand binding on HEK cell membranes. The following applies: CB1 receptor affinity, [3H]-CP-55,940, HEK membranes. The procedure:
The affinity of the compounds of the invention for cannabinoid CB1 receptors was determined using membrane preparations of human embryonic kidney (HEK) cells in which the human cannabis […] receptor is transiently transfected using the Semliki Forest Virus system in conjunction with [3H]-CP-55,940 as radioligand. After incubation of a freshly prepared cell membrane preparation with the [3H]-ligand, with or without addition of compounds of the invention, separation of bound and free ligand was performed by filtration over glassfiber filters. Radioactivity on the filter was measured by liquid scintillation counting.

pIC50: −log10 of the molar value.

T1 sequence (P21554 whole entry): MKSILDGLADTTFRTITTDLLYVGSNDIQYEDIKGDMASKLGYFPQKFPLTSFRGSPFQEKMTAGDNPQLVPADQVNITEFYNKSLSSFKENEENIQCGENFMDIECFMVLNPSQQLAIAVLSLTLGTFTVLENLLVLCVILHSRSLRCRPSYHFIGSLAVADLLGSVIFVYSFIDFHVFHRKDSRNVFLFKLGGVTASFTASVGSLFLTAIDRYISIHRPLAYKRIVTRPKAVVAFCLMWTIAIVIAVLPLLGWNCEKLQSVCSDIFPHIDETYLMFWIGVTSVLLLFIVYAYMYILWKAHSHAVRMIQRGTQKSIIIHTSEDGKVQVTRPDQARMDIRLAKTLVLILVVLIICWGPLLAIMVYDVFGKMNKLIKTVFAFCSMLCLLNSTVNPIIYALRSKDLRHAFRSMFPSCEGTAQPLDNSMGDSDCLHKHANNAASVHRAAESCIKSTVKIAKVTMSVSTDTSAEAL

As usually defined, the pIC50 is the negative decadic logarithm of the IC50, by convention in mol/L. On to `O=C(c1cc2c(cc1F)OC1(O2)c2ccccc2C=Cc2ccccc21)N1CCOCC1` [Example 3, 4-[(6-fluoro-spiro[1,3-benzodioxole-2,5′-[5H]dibenzo[a,d]cyclohepten]-5-yl)carbonyl]-morpholine], for which the pIC50 is 8.22.

For the origin of these results see patent US7220743B2, “Heterocyclic CB1 receptor antagonists” (Hoffmann-La Roche Inc., priority 2005, dated 2007).
